Laboratory results as given in patent US20240158406A1, “PIPERAZINE DERIVATIVE AND USE THEREOF IN MEDICINE” (CHENGDU BAIYU PHARMACEUTICAL CO., LTD., priority 2021, published 2024).

Legend:
PARP7 = PARP7 (Homo sapiens (Human), UniProt Q7Z3E1); assay: Enzymatic biochemical assay of PARP (chemiluminescence detection kit), PARP7; conditions: read-out: Inhibitory activity against PAPR7 (IC50)
Description: (§1) This assay adopted PARP1, TNKS1, TNKS2, PARP7 and PARP14 chemiluminescence detection kits (BPS, Cat No. 80551/80552/80573/80578/79729/80568) for enzymatic biochemical assay of PARP. The specific scheme was as follows: the 1× histone mixture was added to a 96-well plate at 50 μL per well, and the plate was incubated overnight at 4° C. The next day, after the plate was washed with PBST, 200 μL of blocking buffer per well was added, and the plate was incubated for 90 min. After the plate was washed with PBST again, 5 μL of inhibitor, 20 μL of 1×PARP buffer and 25 μL of […] were added to each well, and the plate was incubated at room temperature for 30 min. After the plate was washed with PBST, 100 μL of Elisa ECL substrate A and B mixture was added to each well, chemiluminescence value was immediately read using a plate reader, and IC50 values were calculated.

PARP1 = PARP1 (Homo sapiens (Human), UniProt P09874); assay: Enzymatic biochemical assay of PARP (chemiluminescence detection kit), PARP1
Sequence of PARP1 (P09874 whole entry): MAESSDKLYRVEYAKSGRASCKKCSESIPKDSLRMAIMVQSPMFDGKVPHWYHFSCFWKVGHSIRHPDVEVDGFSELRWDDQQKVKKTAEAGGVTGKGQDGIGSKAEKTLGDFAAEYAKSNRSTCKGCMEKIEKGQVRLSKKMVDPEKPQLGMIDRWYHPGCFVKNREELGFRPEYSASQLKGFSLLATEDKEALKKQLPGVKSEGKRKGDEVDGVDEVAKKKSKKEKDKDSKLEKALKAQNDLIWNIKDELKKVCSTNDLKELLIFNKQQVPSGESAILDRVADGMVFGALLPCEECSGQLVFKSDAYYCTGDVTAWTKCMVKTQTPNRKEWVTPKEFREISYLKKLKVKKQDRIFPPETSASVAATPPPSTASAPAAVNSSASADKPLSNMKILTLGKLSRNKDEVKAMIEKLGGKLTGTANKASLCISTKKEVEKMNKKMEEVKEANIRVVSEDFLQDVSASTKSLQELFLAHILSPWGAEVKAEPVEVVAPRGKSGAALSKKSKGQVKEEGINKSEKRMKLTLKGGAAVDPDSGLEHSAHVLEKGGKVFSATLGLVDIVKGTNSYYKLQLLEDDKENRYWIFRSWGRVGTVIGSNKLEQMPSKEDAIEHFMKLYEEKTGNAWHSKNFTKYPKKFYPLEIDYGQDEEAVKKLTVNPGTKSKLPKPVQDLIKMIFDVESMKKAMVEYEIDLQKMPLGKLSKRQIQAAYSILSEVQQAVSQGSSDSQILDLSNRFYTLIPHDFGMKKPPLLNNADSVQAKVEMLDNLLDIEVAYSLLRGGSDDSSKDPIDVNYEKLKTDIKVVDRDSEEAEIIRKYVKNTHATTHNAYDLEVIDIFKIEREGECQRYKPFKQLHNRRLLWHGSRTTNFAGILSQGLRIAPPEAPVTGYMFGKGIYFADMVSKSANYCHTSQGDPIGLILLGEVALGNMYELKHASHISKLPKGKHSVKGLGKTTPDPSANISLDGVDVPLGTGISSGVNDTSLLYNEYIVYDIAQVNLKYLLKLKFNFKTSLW
Description: as §1

TNKS1 = TNKS1 (Homo sapiens (Human), UniProt O95271); assay: Enzymatic biochemical assay of PARP (chemiluminescence detection kit), TNKS1
Sequence of TNKS1 (O95271 whole entry): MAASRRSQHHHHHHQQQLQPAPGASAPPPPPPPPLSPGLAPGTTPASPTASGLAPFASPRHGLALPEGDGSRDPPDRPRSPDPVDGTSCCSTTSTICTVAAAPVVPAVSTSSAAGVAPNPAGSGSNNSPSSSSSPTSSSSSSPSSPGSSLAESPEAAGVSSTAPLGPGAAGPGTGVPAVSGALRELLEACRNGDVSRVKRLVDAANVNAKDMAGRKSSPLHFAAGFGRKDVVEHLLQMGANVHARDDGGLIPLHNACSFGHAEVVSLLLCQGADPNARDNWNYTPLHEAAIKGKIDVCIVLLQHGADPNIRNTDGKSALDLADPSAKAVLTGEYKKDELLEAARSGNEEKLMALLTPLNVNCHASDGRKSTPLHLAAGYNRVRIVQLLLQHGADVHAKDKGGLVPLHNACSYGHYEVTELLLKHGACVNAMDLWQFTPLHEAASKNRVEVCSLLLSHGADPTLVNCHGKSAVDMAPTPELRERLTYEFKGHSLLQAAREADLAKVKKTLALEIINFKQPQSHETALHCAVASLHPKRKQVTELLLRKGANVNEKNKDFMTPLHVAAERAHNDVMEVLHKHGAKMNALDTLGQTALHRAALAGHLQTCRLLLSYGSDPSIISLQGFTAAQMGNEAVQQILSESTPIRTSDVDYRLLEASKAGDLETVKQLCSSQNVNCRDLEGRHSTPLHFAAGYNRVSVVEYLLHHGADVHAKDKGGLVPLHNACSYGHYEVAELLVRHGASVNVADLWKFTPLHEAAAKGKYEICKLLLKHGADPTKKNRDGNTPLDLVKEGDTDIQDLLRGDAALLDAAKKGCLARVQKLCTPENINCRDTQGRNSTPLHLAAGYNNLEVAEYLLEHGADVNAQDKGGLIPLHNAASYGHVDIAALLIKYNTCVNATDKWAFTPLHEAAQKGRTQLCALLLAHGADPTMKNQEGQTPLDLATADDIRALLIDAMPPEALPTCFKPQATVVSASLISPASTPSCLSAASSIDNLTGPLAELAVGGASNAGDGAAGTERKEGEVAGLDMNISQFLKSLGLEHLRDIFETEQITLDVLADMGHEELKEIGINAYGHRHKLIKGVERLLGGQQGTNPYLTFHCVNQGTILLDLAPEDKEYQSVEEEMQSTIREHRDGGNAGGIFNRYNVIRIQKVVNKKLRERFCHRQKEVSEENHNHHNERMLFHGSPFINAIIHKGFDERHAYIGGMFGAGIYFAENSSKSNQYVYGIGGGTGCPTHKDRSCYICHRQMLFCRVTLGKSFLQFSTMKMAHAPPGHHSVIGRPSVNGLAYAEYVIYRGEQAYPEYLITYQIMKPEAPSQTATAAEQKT
Description: as §1

TNKS2 = TNKS2 (Homo sapiens (Human), UniProt Q9H2K2); assay: Enzymatic biochemical assay of PARP (chemiluminescence detection kit), TNKS2
Sequence of TNKS2 (Q9H2K2 whole entry): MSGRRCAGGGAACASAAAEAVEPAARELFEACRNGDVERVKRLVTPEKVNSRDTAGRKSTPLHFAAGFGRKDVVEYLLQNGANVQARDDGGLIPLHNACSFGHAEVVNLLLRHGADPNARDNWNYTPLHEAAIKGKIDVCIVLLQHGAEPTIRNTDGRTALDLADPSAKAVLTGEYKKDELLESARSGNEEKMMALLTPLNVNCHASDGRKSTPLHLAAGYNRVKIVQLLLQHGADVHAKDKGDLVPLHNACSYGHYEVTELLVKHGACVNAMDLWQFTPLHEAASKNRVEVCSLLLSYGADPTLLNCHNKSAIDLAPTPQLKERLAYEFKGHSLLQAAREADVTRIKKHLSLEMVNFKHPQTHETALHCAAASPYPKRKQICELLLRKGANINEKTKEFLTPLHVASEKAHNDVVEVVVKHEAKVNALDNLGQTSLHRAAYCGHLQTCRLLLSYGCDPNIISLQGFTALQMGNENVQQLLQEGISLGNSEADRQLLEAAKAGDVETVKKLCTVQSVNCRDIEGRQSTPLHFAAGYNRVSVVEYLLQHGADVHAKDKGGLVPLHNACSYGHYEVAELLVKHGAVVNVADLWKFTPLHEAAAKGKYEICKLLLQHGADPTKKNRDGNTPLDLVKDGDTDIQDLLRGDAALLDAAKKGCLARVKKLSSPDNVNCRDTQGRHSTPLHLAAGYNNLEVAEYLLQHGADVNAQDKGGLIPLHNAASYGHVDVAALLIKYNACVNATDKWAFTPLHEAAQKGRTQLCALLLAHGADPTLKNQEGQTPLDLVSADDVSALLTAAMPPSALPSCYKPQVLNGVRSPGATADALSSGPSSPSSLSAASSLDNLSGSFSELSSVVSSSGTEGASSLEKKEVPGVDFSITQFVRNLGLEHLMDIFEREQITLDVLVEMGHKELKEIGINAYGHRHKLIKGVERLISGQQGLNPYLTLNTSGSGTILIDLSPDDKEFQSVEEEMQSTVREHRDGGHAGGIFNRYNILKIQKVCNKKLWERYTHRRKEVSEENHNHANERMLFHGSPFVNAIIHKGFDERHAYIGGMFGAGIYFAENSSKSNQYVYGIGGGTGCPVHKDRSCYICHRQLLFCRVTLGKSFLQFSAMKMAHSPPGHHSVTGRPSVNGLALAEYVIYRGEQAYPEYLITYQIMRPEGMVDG
Description: as §1

PARP14 = PARP14 (Homo sapiens (Human), UniProt Q460N5); assay: Enzymatic biochemical assay of PARP (chemiluminescence detection kit), PARP14
Description: as §1

NCI-H1373 cells = assay: NCI-H1373 cell proliferation inhibition assay; type: cell-based; conditions: Homo sapiens, NCI-H1373, 144 h; 6 days of incubation, Cell Titer Blue
Description: Human lung adenocarcinoma cells NC-H1373 (ATCC, CRL-5866M) were cultured in a cell incubator at 37° C. and 5% CO2 using RPMI-1640 medium containing 10% FBS and 1% […]. The cells in the logarithmic growth phase were counted by digestion and inoculated in a 96-well plate at 1500 NCI-H1373 per well, and the plate was placed in an incubator overnight. The next day, test compounds were formulated in 10 mM stock solution by using DMSO and 3-fold diluted in gradient from a maximum concentration of 10 μM by using RPMI-1640 medium, and 10 gradient concentrations were set with 2 parallel wells per concentration gradient. After 6 days of incubation, 100 μL of Cell Titer Blue working solution was added to each well and the chemiluminescence value was read in a microplate reader. IC50 was calculated using GraphPad Prism7.0 software.

[1] = Metabolic stability in liver microsome; type: in vitro ADME; conditions: 0.5 mg/mL CD1 mouse liver microsome, 0.5 μM test compound, NADPH and UDPGA, 37° C.
Description: 0.5 mg/mL CD1 mouse liver microsome solution, 0.5 μM test compound, 1.0 mM reduced nicotinamide adenine dinucleotide phosphate (NADPH), and 1.0 mM uridine diphosphate-A-glucuronic acid (UDPGA) were added to the incubation plate and mixed, and the plate was incubated at 37° C. for 0, 30, 60, 120 min separately. The positive control group was set as 0.5 μM CYP3A4 probe substrate-testosterone and 0.5 μM UGT probe substrate-7-hydroxycoumarin incubated with microsomes for 0 and 120 min in the presence of NADPH and UDPGA; the negative control group (NC) was set as the test substance incubated with microsomes for 0 and 120 min without any coenzyme. After the reaction was terminated by adding pre-cooled methanol at each termination time, the reaction mixture was centrifuged at 4000 rpm for 10 min, the supernatant was taken and the remaining amount of the parent drug in the sample was measured by LC-MS/MS, the results of which are shown in Table 4.

MDCKII-MDR1 cells = assay: MDCKII-MDR1 cell permeability assay; type: in vitro ADME; conditions: 1 μM test compound, 2 h
Description: 50 μL of MDCKII-MDR1 cell suspension with a density of 1.56×10^6 cells/mL was seeded into a Transwell well of a 96-well plate, and the plate was cultured in a cell incubator at 37° C. in 5% CO2. […] The medium in Transwell was discarded, and HBSS equilibration solution was added and incubated at 37° C. for 30 min. Subsequently, an apical to basolateral drug transport rate assay was performed by adding 1 μM test compound solution to the Transwell AB side and a blank equilibration solution to the BL side. When the basolateral to apical drug transport rate assay was performed, the operation steps were reversed. Subsequently, the cells were placed in an incubator for 2 h. After the incubation, samples were taken from the basolateral and apical respectively, and after centrifugation, the supernatant was subjected to LC-MS/MS analysis, and the apparent permeability coefficient (Papp) was calculated, the results of which are shown in Table 5.

Sequence of PARP7 (Q7Z3E1 whole entry): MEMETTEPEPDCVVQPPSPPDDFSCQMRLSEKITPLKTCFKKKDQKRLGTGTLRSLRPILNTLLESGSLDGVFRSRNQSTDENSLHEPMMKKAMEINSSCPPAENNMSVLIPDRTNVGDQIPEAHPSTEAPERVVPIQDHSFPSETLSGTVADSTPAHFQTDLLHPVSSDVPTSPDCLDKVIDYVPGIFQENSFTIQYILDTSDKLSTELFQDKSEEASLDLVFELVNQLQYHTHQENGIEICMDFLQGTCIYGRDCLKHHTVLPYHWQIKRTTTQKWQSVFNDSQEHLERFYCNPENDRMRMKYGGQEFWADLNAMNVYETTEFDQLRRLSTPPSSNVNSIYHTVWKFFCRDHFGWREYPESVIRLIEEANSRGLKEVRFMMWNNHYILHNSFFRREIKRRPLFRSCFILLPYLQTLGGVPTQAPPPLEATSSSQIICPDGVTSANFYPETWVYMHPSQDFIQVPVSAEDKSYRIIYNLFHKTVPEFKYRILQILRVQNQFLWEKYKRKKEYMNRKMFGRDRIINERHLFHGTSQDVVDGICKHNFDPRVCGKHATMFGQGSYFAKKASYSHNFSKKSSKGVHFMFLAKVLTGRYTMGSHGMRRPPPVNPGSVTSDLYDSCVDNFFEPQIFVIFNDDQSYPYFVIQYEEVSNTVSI

T1/2 [1]	Papp (A-B) (MDCKII-MDR1 cells; apical to basolateral)	Papp (B-A) (MDCKII-MDR1 cells; basolateral to apical)	SMILES	IC50 (PARP7)	IC50 (PARP1)	IC50 (TNKS1)	IC50 (TNKS2)	IC50 (PARP14)	IC50 (NCI-H1373 cells)	half-life at 0.5 μM ([1]; liver microsomes)
			C[C@@H](COCc1cc2n(n1)CCN(c1ncc(C(F)(F)F)cn1)C2)Nc1cn[nH]c(=O)c1C(F)(F)F [Compound 1]	10 to 50 nM	> 1000 nM	> 10000 nM	> 10000 nM	> 10000 nM	< 50 nM	> 30 min
<30 min	5.16 10-6, cm/s	49.43 10-6, cm/s	C[C@@H](COCCC(=O)N1CCN(c2ncc(C(F)(F)F)cn2)CC1)Nc1cn[nH]c(=O)c1C(F)(F)F [Comparative example, reference compound]							
